Values quoted from earlier work as cited in US20080102144A1, “FAT BETA-OXIDATION ENHANCING AND CARBOHYDRATE ABSORPTION INHIBITION SUPPLEMENT” (priority 2006, published 2008).
Like-named read-outs stand apart in the source and are kept apart here.

Legend:
[1] = mice
[2] = system: hepatic glucose-6-phosphate (G-6-P); conditions: rate-limiting step in gluconeogenesis
[3] = system: carnitine palmitoyltransferase; conditions: 0.5% and 1.0% supplemented diets after 6 days
[4] = human studies, as opposed to triacylglycerol, no increase in energy expenditure
[5] = 16 weeks, versus triacylglycerol

For Cn1c(=O)c2c(ncn2C)n(C)c1=O [caffeine], the “total serum triglyceride levels” value [1] is listed as “decreased”.
In the case of O=C(/C=C/c1ccc(O)c(O)c1)O[C@@H]1C[C@](O)(C(=O)O)C[C@@H](O)[C@H]1O [chlorogenic acid], the “cell cycle phase of proliferation arrest” value (3T3-preadipocyte cells; 3T3-preadipocyte cells) is given as “G1 phase”, the “proliferation of 3T3-preadipocyte cells” value (3T3-preadipocyte cells; addition to 3T3-preadipocyte tissue cultures) is given as “inhibited the proliferation in both and a time- and dose-dependant manner” and the “inhibition of hepatic glucose-6-phosphate (G-6-P)” value [2] is given as “selectively inhibit”. For the same molecule, the “carnitine palmitoyltransferase activity in the liver” value [3] was “did not enhance”.
In the case of diacylglycerol, the hepatic fat oxidation (after a single dose, compared to triacylglycerol) is given as “significant increase”, the “β-oxidation of fatty acids” value (animal studies, compared against triacylglycerol) is given as “increase” and the “glucose-6-phophate dehydrogenase, malic enzyme, fatty acid synthase and fatty acid synthesis” value (rats fed diacylglycerol) is given as “lower”. For the same molecule, the “mitochondrial and peroxisome oxidation of palmtoyl-CoA in liver homogenates” value (rats fed diacylglycerol) was “increased”, the “β-oxidation of fatty acids” value [4] was “increase” and the body mass index [5] was “significant decrease”. For the same molecule, the body weight [5] was “significant decrease”, the “total fat area as assessed by CT scan” value [5] was “significantly reduced” and the waist circumference [5] was “significant decrease”.
